Reference: US6858591B2, “Antibiotic AA 896 analogs” (Wyeth Holdings Corporation, priority 2001, dated 2005)
In brackets after ≈: the same amount, converted by molar mass.

Tests used:
Assay in all cases: In vitro MIC, broth dilution
Assay type in all cases: cell-based
E. coli GC 2203 = settings: Escherichia coli, GC2203; E. coli GC 2203; read-out: MIC
S. marcescens GC 4077 = settings: Serratia marcescens, GC4077; S. marcescens GC 4077; read-out: MIC
E. coli GC 3226 = settings: Escherichia coli, GC3226; E. coli GC 3226; read-out: MIC
K. pneumoniae GC 4534 = settings: Klebsiella pneumoniae, GC4534; K. pneumoniae GC 4534; read-out: MIC
E. coli GC 4560 = settings: Escherichia coli, GC4560; E. coli GC 4560; read-out: MIC
P. aeruginosa GC 4532 = settings: Pseudomonas aeruginosa, GC4532; P. aeruginosa GC 4532; read-out: MIC
P. aeruginosa GC 2214 = settings: Pseudomonas aeruginosa, GC2214; P. aeruginosa GC 2214; read-out: MIC
E. coli GC 4559 = settings: Escherichia coli, GC4559; E. coli GC 4559; read-out: MIC
CNS GC 4547 = settings: CNS GC 4547; read-out: MIC
Protocol: (§1) The minimum inhibitory concentration (MIC), the lowest concentration of the antibiotic which inhibits growth of the test organism, is determined by the broth dilution method using Muller-Hinton II […] (Baltimore Biological Laboratories) following the recommendations of National Committee for Clinical Laboratory Standards. [Reference for the Methods for dilution antimicrobial susceptibility tests for bacteria that grow aerobically: National Committee for Clinical Laboratory Standards, 1997. Approved standard M7-A National Committee for Clinical Laboratory Standards, Wayne, Pa.] An inoculum level of 5×10^5 CFU/ml, and a range of antibiotic concentrations (64-0.06 μg/ml) is used. The MIC is determined after the microtiter plates are incubated for 18 hours at 35° C. in an ambient air incubator. The test organisms comprise a spectrum of gram-positive bacteria including Staphylococcus sp., Streptococcus sp. and Enterococcus sp. These organisms include recent clinical isolates that are resistant to methicillin, penicillin and vancomycin.

S. aureus GC 1131 = settings: Staphylococcus aureus, GC1131; S. aureus GC 1131; read-out: MIC
Protocol: as §1

E. faecalis GC 842 = settings: Enterococcus faecalis, GC842; E. faecalis GC 842; read-out: MIC
Protocol: as §1

E. faecalis GC 4555 = settings: Enterococcus faecalis, GC4555; E. faecalis GC 4555; read-out: MIC
Protocol: as §1

CNS GC 4537 = settings: CNS GC 4537; read-out: MIC
Protocol: as §1

CNS GC 4538 = settings: CNS GC 4538; read-out: MIC
Protocol: as §1

S. aureus GC 4536 = settings: Staphylococcus aureus, GC4536; S. aureus GC 4536; read-out: MIC
Protocol: as §1

S. aureus GC 2216 = settings: Staphylococcus aureus, GC2216; S. aureus GC 2216; read-out: MIC
Protocol: as §1

E. faecalis GC 2242 = settings: Enterococcus faecalis, GC2242; E. faecalis GC 2242; read-out: MIC
Protocol: as §1

C. albicans GC 3066 = settings: Candida albicans, GC3066; C. albicans GC 3066; read-out: MIC
E. cloacae GC 3783 = settings: Enterobacter cloacae, GC3783; E. cloacae GC 3783; read-out: MIC
M. morganii GC 4531 = settings: Morganella morganii, GC4531; M. morganii GC 4531; read-out: MIC

COc1ccc(Cn2c(=O)ccn([C@@H]3OC([C@H](O)[C@H](NCCCNC(=O)[C@@H](N)Cc4ccccc4)C(=O)OC(C)(C)C)[C@@H](O[Si](C)(C)C(C)(C)C)[C@H]3O[Si](C)(C)C(C)(C)C)c2=O)cc1 (stereo partly drawn) [Example 13, tert-Butyl (2S,3R)-2-[(3-{[(2S)-2-amino-3-phenylpropanoyl]amino}propyl)amino]-3-[(3R,4R,5R)-3,4-bis{[tert-butyl(dimethyl)silyl]oxy}-5-(3-(4-methoxybenzyl)-2,4-dioxo-3,4-dihydro-1(2H)-pyrimidinyl)tetrahydro-2-furanyl]-3-hydroxypropanoate]
MIC (E. coli GC 2203): > 128 µg/mL | MIC (S. marcescens GC 4077): > 128 µg/mL | MIC (E. coli GC 3226): > 128 µg/mL | MIC (K. pneumoniae GC 4534): > 128 µg/mL | MIC (E. coli GC 4560): > 128 µg/mL | MIC (P. aeruginosa GC 4532): > 128 µg/mL | MIC (P. aeruginosa GC 2214): > 128 µg/mL | MIC (E. coli GC 4559): > 128 µg/mL | MIC (CNS GC 4547): > 128 µg/mL | MIC (S. aureus GC 1131): > 128 µg/mL | MIC (E. faecalis GC 842): 128 µg/mL (≈ 138 µM) | MIC (E. faecalis GC 4555): > 128 µg/mL | MIC (CNS GC 4537): > 128 µg/mL | MIC (CNS GC 4538): > 128 µg/mL | MIC (S. aureus GC 4536): > 128 µg/mL | MIC (S. aureus GC 2216): > 128 µg/mL | MIC (E. faecalis GC 2242): 16 µg/mL (≈ 17.3 µM) | MIC (C. albicans GC 3066): > 128 µg/mL | MIC (E. cloacae GC 3783): > 128 µg/mL | MIC (M. morganii GC 4531): > 128 µg/mL

COc1ccc(Cn2c(=O)ccn([C@@H]3OC([C@H](O)[C@H](NCCCNC(=O)[C@H](C)NC(=O)OCc4ccccc4)C(=O)OC(C)(C)C)[C@@H](O[Si](C)(C)C(C)(C)C)[C@H]3O[Si](C)(C)C(C)(C)C)c2=O)cc1 (stereo partly drawn) [Example 14, tert-Butyl (5S,12S)-12-[(R)-[(3R,4R,5R)-3,4-bis{[tert-butyl(dimethyl)silyl]oxy}-5-(3-(4-methoxybenzyl)-2,4-dioxo-3,4-dihydro-1(2H)-pyrimidinyl)tetrahydro-2-furanyl](hydroxy)methyl]-5-methyl-3,6-dioxo-1-phenyl-2-oxa-4,7,11-triazatridecan-13-oate]
MIC (E. coli GC 2203): > 128 µg/mL | MIC (S. marcescens GC 4077): > 128 µg/mL | MIC (E. coli GC 3226): > 128 µg/mL | MIC (K. pneumoniae GC 4534): > 128 µg/mL | MIC (E. coli GC 4560): 128 µg/mL (≈ 130 µM) | MIC (P. aeruginosa GC 4532): 128 µg/mL (≈ 130 µM) | MIC (P. aeruginosa GC 2214): 128 µg/mL (≈ 130 µM) | MIC (E. coli GC 4559): > 128 µg/mL | MIC (CNS GC 4547): 128 µg/mL (≈ 130 µM) | MIC (S. aureus GC 1131): > 128 µg/mL | MIC (E. faecalis GC 842): > 128 µg/mL | MIC (E. faecalis GC 4555): 128 µg/mL (≈ 130 µM) | MIC (CNS GC 4537): > 128 µg/mL | MIC (CNS GC 4538): > 128 µg/mL | MIC (S. aureus GC 4536): > 128 µg/mL | MIC (S. aureus GC 2216): > 128 µg/mL | MIC (E. faecalis GC 2242): 128 µg/mL (≈ 130 µM) | MIC (C. albicans GC 3066): 128 µg/mL (≈ 130 µM) | MIC (E. cloacae GC 3783): > 128 µg/mL | MIC (M. morganii GC 4531): 128 µg/mL (≈ 130 µM)

COc1ccc(Cn2c(=O)ccn([C@@H]3OC([C@H](O)[C@H](NCCCNC(=O)[C@H](C)N)C(=O)OC(C)(C)C)[C@@H](O[Si](C)(C)C(C)(C)C)[C@H]3O[Si](C)(C)C(C)(C)C)c2=O)cc1 (stereo partly drawn) [Example 15, tert-Butyl (2S,3R)-2-[(3-{[(2S)-2-aminopropanoyl]amino}propyl)amino]-3-[(3R,4R,5R)-3,4-bis{[tert-butyl(dimethyl)silyl]oxy}-5-(3-(4-methoxybenzyl)-2,4-dioxo-3,4-dihydro-1(2H)-pyrimidinyl)tetrahydro-2-furanyl]-3-hydroxypropanoate]
MIC (E. coli GC 2203): > 128 µg/mL | MIC (S. marcescens GC 4077): > 128 µg/mL | MIC (E. coli GC 3226): > 128 µg/mL | MIC (K. pneumoniae GC 4534): > 128 µg/mL | MIC (E. coli GC 4560): 8 µg/mL (≈ 9.41 µM) | MIC (P. aeruginosa GC 4532): > 128 µg/mL | MIC (P. aeruginosa GC 2214): 128 µg/mL (≈ 151 µM) | MIC (E. coli GC 4559): > 128 µg/mL | MIC (CNS GC 4547): 8 µg/mL (≈ 9.41 µM) | MIC (S. aureus GC 1131): 4 µg/mL (≈ 4.7 µM) | MIC (E. faecalis GC 842): 4 µg/mL (≈ 4.7 µM) | MIC (E. faecalis GC 4555): 4 µg/mL (≈ 4.7 µM) | MIC (CNS GC 4537): 4 µg/mL (≈ 4.7 µM) | MIC (CNS GC 4538): 4 µg/mL (≈ 4.7 µM) | MIC (S. aureus GC 4536): 4 µg/mL (≈ 4.7 µM) | MIC (S. aureus GC 2216): 4 µg/mL (≈ 4.7 µM) | MIC (E. faecalis GC 2242): 4 µg/mL (≈ 4.7 µM) | MIC (C. albicans GC 3066): 64 µg/mL (≈ 75.3 µM) | MIC (E. cloacae GC 3783): > 128 µg/mL | MIC (M. morganii GC 4531): 128 µg/mL (≈ 151 µM)
